Laboratory results as given in US20260125359A1, “HETEROARYL COMPOUNDS AS MULTI-TARGET PROTEIN KINASE INHIBITORS” (FUJIAN HAIXI PHARMACEUTICALS CO., LTD., priority 2023, published 2026).

Each compound was assayed on M-NFS-60 cells (assay: M-NFS-60 cell in vitro assay (CCK, 48 h, M-CSF factor medium)). Details: M-NFS-60 cells; read-out: M-NFS-60cellassay IC50.
Format: cell-based
Summary of the method: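 Mouse M-NFS-60 cells (2000/well) in RPMI-1640 with 10% serum and M-CSF (25 ng/ml) were pre-incubated 4 h, then exposed to DMSO-diluted compound gradients for 48 h at 5% CO2. Viability read by CCK, 2 h, OD 450 nm; IC50 from curve fitting.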

`Cn1cc(-c2cncc(N[C@H]3CCc4c(C(=O)NN5CCCCC5)cccc43)n2)cn1` [Compound 27j] and `Cn1cc(-c2cncc(N[C@H]3CCc4c(C(=O)NC5CCOCC5)cccc43)n2)cn1` [Compound 27l] cannot be ordered by IC50: > 500 nM for the first, > 500 nM for the second.

`Cn1cc(-c2cncc(N[C@H]3CCc4c(C(=O)Nc5cncc(Cl)c5)cccc43)n2)cn1` [Compound 27k] and `COc1cc(NC(=O)c2cccc3c2CC[C@@H]3Nc2cncc(-c3cnn(C)c3)n2)ccc1F` [Compound 27o] cannot be ordered by IC50: < 50 nM for the first, < 50 nM for the second.

`Cn1cc(-c2cncc(N[C@H]3CCc4c(C(=O)NC(C)(C)C(F)(F)F)cccc43)n2)cn1` [Compound 27m] and `COC(=O)Nc1cccc2c1CC[C@@H]2Nc1cncc(-c2cnn(C)c2)n1` [Compound 29, methyl(S)-(1-((6-(1-methyl-1H-pyrazol-4-yl)pyrazin-2-yl)amino)-2,3-dihydro-1H-inden-4-yl) carbamate] cannot be ordered by IC50: > 500 nM for the first, > 500 nM for the second.

Going from `Cn1cc(-c2cncc(N[C@H]3CCc4c(C(=O)Nc5ccccc5F)cccc43)n2)cn1` [Compound 27n] to `Cc1cncc(Nc2cccc3c2CC[C@@H]3Nc2cncc(-c3cnn(C)c3)n2)c1` [Compound 39b], the IC50 rises from < 50 nM to > 500 nM. The first is the more potent here.

`Cn1cc(-c2cncc(N[C@H]3CCc4c(NC(=O)c5cccc(CN6CCCCC6)c5)cccc43)c2)cn1` [Compound 28a] and `Cn1cc(-c2cncc(N[C@H]3CCc4c(NC(=O)c5cccc(CN6CCCC6)c5)cccc43)c2)cn1` [Compound 28b] cannot be ordered by IC50: > 500 nM for the first, > 500 nM for the second.

`Cc1cccc(C(=O)Nc2cccc3c2CC[C@@H]3Nc2cncc(Cl)n2)c1` [Compound 30, (S)—N-(1-((6-chloropyrazin-2-yl)amino)-2,3-dihydro-1H-inden-4-yl)-3-methylbenzamide] and `Cc1cccc(NC(=O)c2cccc3c2CC[C@@H]3Nc2cncc(Cl)n2)c1` [Compound 33c, (S)-1-((6-chloropyrazin-2-yl)amino)-N-(m-tolyl)-2,3-dihydro-1H-indene-4-carboxamide] cannot be ordered by IC50: < 50 nM for the first, < 50 nM for the second.

Compared with `Cc1cccc(C(=O)Nc2cccc3c2CC[C@@H]3Nc2cncc(N3CCN(C)CC3)n2)c1` [Compound 31, (S)-3-methyl-N-(1-((6-(4-methylpiperazin-1-yl)pyrazin-2-yl)amino)-2,3-dihydro-1H-inden-4-yl)benzamide], `Cc1cccc(NC(=O)c2cccc3c2CC[C@@H]3Nc2cncc(N3CCN(C)CC3)n2)c1` [Compound 34, (S)-1-((6-(4-methylpiperazin-1-yl)pyrazin-2-yl)amino)-N-(m-tolyl)-2,3-dihydro-1H-indene-4-carboxamide] is lower in IC50: 200 to 500 nM for the first, 50 to 200 nM for the second.

First: Cc1cccc(C(=O)Nc2cccc3c2CC[C@@H]3Nc2cncc(N(C)CCN(C)C)n2)c1 [Compound 32, (S)—N-(1-((6-((2-(dimethylamino)ethyl)(methyl)amino)pyrazin-2-yl)amino)-2,3-dihydro-1H-inden-4-yl)-3-methylbenzamide]
Second: Cc1cccc(C(=O)Nc2c(F)ccc3c2CC[C@@H]3Nc2cncc(-c3cnn(C)c3)c2)c1 [Compound 46b]
The IC50 of the first is higher: > 500 nM for the first, 50 to 200 nM for the second.

Compared with `CC(C)c1csc(Nc2cccc3c2CC[C@@H]3Nc2cncc(-c3cnn(C)c3)n2)n1` [Compound 35, (S)—N^4-(4-isopropylthiazol-2-yl)-N^1-(6-(1-methyl-1H-pyrazol-4-yl)pyrazin-2-yl)-2,3-dihydro-1H-indene-1,4-diamine], `Cc1csc(Nc2cccc3c2CC[C@@H]3Nc2cncc(-c3cnn(C)c3)n2)n1` [Compound 36a] is higher in IC50: 50 to 200 nM for the first, > 500 nM for the second. The first is the more potent here.

First: Cn1cc(-c2cncc(N[C@H]3CCc4c(Nc5nc(C6CC6)cs5)cccc43)n2)cn1 [Compound 36b]
Second: Cn1cc(-c2cncc(N[C@H]3CCc4c(Nc5nc(C(C)(C)C)cs5)cccc43)n2)cn1 [Compound 36c]
The IC50 of the first is higher: 50 to 200 nM for the first, < 50 nM for the second. The second is the more potent here.

First: CC(C)c1cnc(Nc2cccc3c2CC[C@@H]3Nc2cncc(-c3cnn(C)c3)n2)s1 [Compound 37, (S)—N^4-(5-isopropylthiazol-2-yl)-N^1-(6-(1-methyl-1H-pyrazol-4-yl)pyrazin-2-yl)-2,3-dihydro-1H-indene-1,4-diamine]
Second: Cn1cc(-c2cncc(N[C@H]3CCc4c(Nc5cnn(C(C)(C)C)c5)cccc43)n2)cn1 [Compound 39a]
The IC50 of the first is lower: 50 to 200 nM for the first, > 500 nM for the second.

First: Cn1cc(-c2cncc(N[C@H]3CCc4c(Nc5ccn(C(C)(C)C)n5)cccc43)n2)cn1 [Compound 38, (S)—N^4-(1-(tert-butyl)-1H-pyrazol-3-yl)-N^1-(6-(1-methyl-1H-pyrazol-4-yl)pyrazin-2-yl)-2,3-dihydro-1H-indene-1,4-diamine]
Second: Cn1cc(-c2cncc(NC3CCc4c(Nc5cc(C(C)(C)C)on5)cccc43)c2)cn1 (centres unmarked) [Compound 48, N^4-(5-(tert-butyl)isoxazol-3-yl)-N^1-(5-(1-methyl-1H-pyrazol-4-yl)pyridin-3-yl)-2,3-dihydro-1H-indene-1,4-diamine]
The IC50 of the first is higher: 50 to 200 nM for the first, < 50 nM for the second. The second is the more potent here.

Compared with `Cc1c(Nc2cccc3c2CC[C@@H]3Nc2cncc(-c3cnn(C)c3)c2)noc1C(C)(C)C` [Compound 40, (S)—N^4-(5-(tert-butyl)-4-methylisoxazol-3-yl)-N^1-(5-(1-methyl-1H-pyrazol-4-yl)pyridin-3-yl)-2,3-dihydro-18-indene-1,4-diamine], `Cn1cc(-c2cncc(N[C@H]3CCc4c(Nc5nc(C(C)(C)C)no5)cccc43)c2)cn1` [Compound 42k] is higher in IC50: < 50 nM for the first, 200 to 500 nM for the second.

`Cc1c(Nc2cccc3c2CC[C@@H]3Nc2cncc(Cl)c2)noc1C(C)(C)C` [Compound 40d, (S)—N^4-(5-(ter-butyl)-4-methylisoxazol-3-yl)-N^1-(5-chloropyridin-3-yl)-2,3-dihydro-1H-indene-1,4-diamine] and `CC(C)(C)c1cc(Nc2cccc3c2CC[C@@H]3Nc2cncc(Cl)c2)no1` [Compound 42a] fall in the same range of IC50: 50 to 200 nM for the first, 50 to 200 nM for the second.

First: CC(C)c1cc(Nc2cccc3c2CC[C@@H]3Nc2cncc(Cl)c2)no1 [Compound 42b]
Second: CC(C)(CO)c1cc(Nc2cccc3c2CC[C@@H]3Nc2cncc(Cl)c2)no1 [Compound 42c]
The IC50 of the first is higher: 50 to 200 nM for the first, < 50 nM for the second. The second is the more potent here.

`Cn1nc(Nc2cccc3c2CC[C@@H]3Nc2cncc(Cl)c2)cc1C(F)(F)F` [Compound 42d] and `CC(C)(C)c1cc(Nc2cccc3c2CC[C@@H]3Nc2cncc(Cl)c2)n[nH]1` [Compound 42e] cannot be ordered by IC50: > 500 nM for the first, > 500 nM for the second.

`Clc1cncc(N[C@H]2CCc3c(Nc4nc5c(s4)CCCC5)cccc32)c1` [Compound 42f] and `CN1CCc2nc(Nc3cccc4c3CC[C@@H]4Nc3cncc(Cl)c3)sc2C1` [Compound 42g] cannot be ordered by IC50: > 500 nM for the first, > 500 nM for the second.

Compared with `CC(C)(C)c1ccnc(Nc2cccc3c2CC[C@@H]3Nc2cncc(Cl)c2)n1` [Compound 42h], `CC(C)(C)c1nnc(Nc2cccc3c2CC[C@@H]3Nc2cncc(Cl)c2)s1` [Compound 42i] is lower in IC50: > 500 nM for the first, 50 to 200 nM for the second. The second is the more potent here.

Compared with `Clc1cncc(N[C@H]2CCc3c(Nc4noc5ccccc45)cccc32)c1` [Compound 42j], `Cn1cc(-c2cncc(N[C@H]3CCc4c(Nc5cc(-c6ccccc6)on5)cccc43)c2)cn1` [Compound 42r] is lower in IC50: > 500 nM for the first, 50 to 200 nM for the second.

Compared with `Cn1cc(-c2cncc(N[C@H]3CCc4c(Nc5nnc(C(C)(C)C)o5)cccc43)c2)cn1` [Compound 42l], `Cn1cc(-c2cncc(N[C@H]3CCc4c(Nc5cc(C(C)(C)C)no5)cccc43)c2)cn1` [Compound 42n] is lower in IC50: > 500 nM for the first, 50 to 200 nM for the second.

First: Cn1cc(-c2cncc(N[C@H]3CCc4c(Nc5ncc(C(C)(C)C)s5)cccc43)c2)cn1 [Compound 42m]
Second: Cn1cc(-c2cncc(N[C@H]3CCc4c(Nc5cc(C(C)(C)C(F)(F)F)on5)cccc43)c2)cn1 [Compound 42p]
The IC50 of the first is higher: 50 to 200 nM for the first, < 50 nM for the second. The second is the more potent here.

Compared with `Cn1cc(-c2cncc(N[C@H]3CCc4c(Nc5cc(C(F)(F)F)nn5C)cccc43)c2)cn1` [Compound 42q], `Cn1cc(-c2cncc(N[C@H]3CCc4c(NC(=O)c5cccc(C(F)(F)F)c5)ccc(F)c43)c2)cn1` [Compound 46d] is lower in IC50: > 500 nM for the first, < 50 nM for the second. The second is the more potent here.

Compared with `Cn1cc(-c2cncc(N[C@H]3CCc4c(Nc5cc(C(C)(C)C)on5)ccc(F)c43)c2)cn1` [Compound 42s], `Cn1cc(-c2cncc(N[C@H]3CCc4c(Nc5nc(C(C)(C)C)cs5)ccc(F)c43)c2)cn1` [Compound 42t] is higher in IC50: < 50 nM for the first, 50 to 200 nM for the second. The first is the more potent here.

First: Cc1cccc(C(=O)Nc2cc(F)cc3c2CCC3Nc2cncc(-c3cnn(C)c3)c2)c1 (centres unmarked) [Compound 44a]
Second: Cc1cccc(C(=O)Nc2cc(F)cc3c2CC[C@@H]3Nc2cncc(-c3cnn(C)c3)c2)c1 [Compound 46a]
The IC50 of the first is higher: 50 to 200 nM for the first, < 50 nM for the second. The second is the more potent here.

`Cc1cccc(C(=O)Nc2ccc(F)c3c2CCC3Nc2cncc(-c3cnn(C)c3)c2)c1` (centres unmarked) [Compound 44b] and `Cc1cccc(C(=O)Nc2ccc(F)c3c2CC[C@@H]3Nc2cncc(-c3cnn(C)c3)c2)c1` [Compound 45, (S)—N-(7-fluoro-1-((5-(1-methyl-1H-pyrazol-4-yl)pyridin-3-yl)amino)-2,3-dihydro-1H-inden-4-yl)-3-methylbenzamide] cannot be ordered by IC50: < 50 nM for the first, < 50 nM for the second.

First: Cc1cccc(C(=O)Nc2cccc3c2CC(F)C3Nc2cncc(-c3cnn(C)c3)c2)c1 (centres unmarked) [Compound 44c]
Second: Cn1cc(-c2cncc(N[C@H]3CCc4c(NC(=O)c5cccc(C6CC6)c5)ccc(F)c43)c2)cn1 [Compound 46c]
The IC50 of the first is higher: 50 to 200 nM for the first, < 50 nM for the second. The second is the more potent here.

Compared with `Cn1cc(-c2cncc(NC3CCc4c(NC(=O)c5cccc(C6CC6)c5)ccnc43)c2)cn1` (centres unmarked) [Compound 44e], `Cn1cc(-c2cncc(NC3COc4c(NC(=O)c5ccc(C(F)(F)F)cc5)cccc43)c2)cn1` (centres unmarked) [Compound 47, N-(3-((5-(1-methyl-1H-pyrazol-4-yl)pyridin-3-yl)amino)-2,3-dihydrobenzofuran-7-yl)-4-(trifluoromethyl)benzamide] is lower in IC50: 200 to 500 nM for the first, 50 to 200 nM for the second. The second is the more potent here.

`CN(c1cncc(-c2cnn(C)c2)c1)[C@H]1CCc2c(Nc3cc(C(C)(C)C)on3)cccc21` [Compound 49, (S)—N^4-(5-(tert-butyl)isoxazol-3-yl)-N^1-methyl-N1-(5-(1-methyl-1H-pyrazol-4-yl)pyridin-3-yl)-2,3-dihydro-1H-indene-1,4-diamine] was tested, and the IC50 was > 500 nM.

Same assay, conditions: read-out: M-NFS-60cellassay IC50(nM)

`Cc1cccc(NC(=O)c2cccc3c2CC[C@@H]3Nc2cncc(C3=CCN(C)CC3)n2)c1` [Compound 33, (S)-1-((6-(1-methyl-1,2,3,6-tetrahydropyridin-4-yl)pyrazin-2-yl)amino)-N-(m-tolyl)-2,3-dihydro-1H-indene-4-carboxamide] gave an IC50 of 50 to 200 nM.
